Molecules are shown by their SMILES.

Series [1] deals with T1, MRP4 (Homo sapiens, UniProt O15439).
T1 construct: Dense platelet vesicles (100 μg of protein) were incubated with [3H]ADP; from tissue; host or cells: platelets (crude membrane vesicles; dense granule fraction of a sucrose gradient)
T1 sequence (O15439 1-1325): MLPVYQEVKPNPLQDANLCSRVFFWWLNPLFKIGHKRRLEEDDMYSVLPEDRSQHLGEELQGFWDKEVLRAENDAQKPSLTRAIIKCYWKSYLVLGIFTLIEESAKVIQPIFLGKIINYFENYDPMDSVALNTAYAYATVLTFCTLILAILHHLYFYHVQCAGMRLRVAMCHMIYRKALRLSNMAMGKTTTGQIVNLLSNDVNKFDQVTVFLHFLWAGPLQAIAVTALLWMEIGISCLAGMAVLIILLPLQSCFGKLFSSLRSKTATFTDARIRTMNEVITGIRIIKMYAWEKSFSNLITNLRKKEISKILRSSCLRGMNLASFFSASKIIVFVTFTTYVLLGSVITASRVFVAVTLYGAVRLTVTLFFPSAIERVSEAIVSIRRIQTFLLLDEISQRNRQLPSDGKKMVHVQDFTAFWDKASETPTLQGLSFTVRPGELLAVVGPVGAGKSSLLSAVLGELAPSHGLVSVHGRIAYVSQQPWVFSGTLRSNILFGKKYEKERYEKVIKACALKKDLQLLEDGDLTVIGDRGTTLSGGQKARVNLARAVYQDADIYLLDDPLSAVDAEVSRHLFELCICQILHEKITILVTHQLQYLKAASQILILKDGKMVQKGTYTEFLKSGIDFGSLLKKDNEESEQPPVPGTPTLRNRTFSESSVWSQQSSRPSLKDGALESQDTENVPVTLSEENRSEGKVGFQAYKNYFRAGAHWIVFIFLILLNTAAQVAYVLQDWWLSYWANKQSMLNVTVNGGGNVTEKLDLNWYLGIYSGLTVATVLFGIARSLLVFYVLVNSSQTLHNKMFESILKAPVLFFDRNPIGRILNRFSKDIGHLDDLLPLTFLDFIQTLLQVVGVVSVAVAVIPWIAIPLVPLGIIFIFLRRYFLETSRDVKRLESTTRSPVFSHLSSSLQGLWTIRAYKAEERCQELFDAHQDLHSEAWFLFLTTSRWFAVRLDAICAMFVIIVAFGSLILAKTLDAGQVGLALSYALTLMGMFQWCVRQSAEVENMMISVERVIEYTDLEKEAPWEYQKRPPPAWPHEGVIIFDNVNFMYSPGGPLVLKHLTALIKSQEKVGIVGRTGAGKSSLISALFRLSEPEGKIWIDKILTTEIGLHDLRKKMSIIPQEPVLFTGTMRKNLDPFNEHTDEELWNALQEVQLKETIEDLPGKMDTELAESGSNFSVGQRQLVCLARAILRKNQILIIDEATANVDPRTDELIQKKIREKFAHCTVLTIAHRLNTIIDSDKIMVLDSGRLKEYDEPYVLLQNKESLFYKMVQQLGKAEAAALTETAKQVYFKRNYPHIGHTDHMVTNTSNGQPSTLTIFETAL
In words: Inhibition of vanadate-sensitive [3H]ADP transport in dense platelet granules (vesicle rapid filtration). The format is biochemical. Conditions: for [^3H]ADP transport (% of control): dense platelet vesicles, [3H]ADP 1 μmol/l, 0.4 mmol/l ATP ± 1 mmol/l orthovanadate, 2 min, mean ± SD of 3; for vanadate-sensitive ADP accumulation in the dense granular fraction of the sucrose gradient: result in words, refers to Table 1. From the text: In order to determine whether the observed difference in the [^3H]ADP uptake by the vesicles in the presence and absence of orthovanadate reflects a transmembrane movement rather than binding to the membrane surface, the influence of high osmolarity was investigated. […] In the presence of orthovanadate, 1 mol/l of sucrose only slightly influenced the [^3H]ADP association to the vesicles. […] Furthermore, the vanadate-sensitive ADP accumulation in the dense granular fraction of the sucrose gradient could be detected and was inhibited by dipyridamole, MK571 and cGMP (Table 1).
Transport of [^3H]ADP. An ATP-dependent transport of [3H]ADP (1 μmol/l) in the membrane vesicles was measured by rapid filtration, as is described for [^3H]cGMP, with the exception that the vesicles in incubation buffer supplemented with 0.4 mmol/l ATP, 10 mmol/l MgCl2 are incubated in the presence or absence of sodium orthovanadate (1 mmol/l). In order to investigate the effect of the osmolarity of the extra-vesicular medium, the vesicles were preincubated for 45 minutes at 4° C. in a 1 mol/l sucrose-containing buffer or in standard incubation buffer which contained 250 mmol/l of sucrose.
Dense platelet vesicles (100 μg of protein) were incubated with [3H]ADP (1 μmol/l) in the presence of 0.4 mmol/l of ATP or 0.4 mmol/l of ATP+1 mmol/l of orthovanadate for two minutes, and the difference in the vesicle-associated radioactivity was calculated. The compounds listed were added to the incubations with and without orthovanadate in the concentrations indicated. The difference is indicated as the percentage of the control (mean value+standard deviation of 3 determinations). The control value of the vanadate-sensitive [^3H]ADP transport in this experiment was […] of protein^−1 after 2 minutes.

For series [2], the target named is T1, MRP4. In words: [3H]ADP transport in crude platelet membrane vesicles. It is filed as biochemical. The settings on record: ATP 0.4 mmol/l plus 1 mM orthovanadate versus ATP alone; crude membranes. As for the experimental part:
In order to determine whether ADP can be a substrate for MRP4-mediated, ATP-dependent transport, the uptake of [3H]ADP (1 μM) in platelet membrane vesicles (crude membranes) in the presence of 0.4 mmol/l of ATP was measured over a period of 2 minutes. […] If ATP was replaced by 5′-AMP or the non-hydrolyzable ATP analog AMPPNP, which was customarily used in control incubations in order to calculate the ATP-dependent component of the transport, approximately a three to four-fold higher background binding of the [^3H]ADP to the membranes was observed, which increased only slightly with time (not shown). […] In order to show the ATP dependence and simultaneously to ensure identical initial ADP concentrations, the transport was measured in the presence of ATP with or without 1 mM orthovanadate, an inhibitor of ATP hydrolysis. A time-dependent increase in the vesicle-associated radioactivity in the presence of ATP was observed, in spite of the fact that [^3H]ADP was diluted by simultaneous formation of unlabeled ADP. […]
Transport of [^3H]ADP. An ATP-dependent transport of [3H]ADP (1 μmol/l) in the membrane vesicles was measured by rapid filtration, as is described for [^3H]cGMP, with the exception that the vesicles in incubation buffer supplemented with 0.4 mmol/l ATP, 10 mmol/l MgCl2 are incubated in the presence or absence of sodium orthovanadate (1 mmol/l). […]

For `OCCN(CCO)c1nc(N2CCCCC2)c2nc(N(CCO)CCO)nc(N3CCCCC3)c2n1` [Dipyridamole, dipyridamole], the “[^3H]ADP transport (% of control)” value was 52.7 ± 5.2 % of control at MRP4 [1] (10 μM substance) and 8.8 ± 0.4 % of control on MRP4 [1] (100 μM substance). Also, on MRP4 [1], the “vanadate-sensitive ADP accumulation in the dense granular fraction of the sucrose gradient” value is given as “inhibited”.
On to `CN(C)C(=O)CCSC(SCCC(=O)O)c1cccc(/C=C/c2ccc3ccc(Cl)cc3n2)c1` (centres unmarked) [MK571], for which the “[^3H]ADP transport (% of control)” value at MRP4 [1] (100 μM substance) was 40.7 ± 3.9 % of control. Besides, the “vanadate-sensitive ADP accumulation in the dense granular fraction of the sucrose gradient” value at MRP4 [1] is “inhibited”.
Turning to `Nc1nc2c(ncn2[C@@H]2O[C@@H]3COP(=O)(O)O[C@H]3[C@H]2O)c(=O)[nH]1` [cGMP, cyclic GMP], the “[^3H]ADP transport (% of control)” value on MRP4 [1] (100 μM substance) is listed as 28.7 ± 2.3 % of control. Moreover, the “vanadate-sensitive ADP accumulation in the dense granular fraction of the sucrose gradient” value on MRP4 [1] is listed as “inhibited”.
As for `[Na+].[Na+].[Na+].[O]=[V]([O-])([O-])[O-]` [orthovanadate, sodium orthovanadate], the “vesicle-associated radioactivity ([3H]ADP)” value at MRP4 [2] is given as “significantly reduced”.

The record behind these values is US20070212366A1, “Use Of Mrp4-Inhibitors For The Treatment And/Or Prophylaxis Of Cardiovascular Diseases” (ERNST-MORITZ-ARNDT-UNIVERSITAT GREIFSWALD, priority 2003, published 2007).
